The record followed here is patent US20240317777A1, “NOVEL MACROCYCLIC AMINOPYRAZOLE COMPOUNDS AS CDK2 INHIBITORS” (Accutar Biotechnology Inc., priority 2023, published 2024).

For one assay, the target named is CDK9-CYCLIN T1 (Homo sapiens, UniProt P50750). The assay is described as follows: CDK protein kinase inhibition by ADP-Glo assay, CDK9-CYCLIN T1. The assay is classed as biochemical. The following applies: for IC50: ADP-Glo, 1000 μM ATP, read-out: CDK9-CYCLINT1, IC50; for CDK2 Fold selectivity, CDK9: CDK2 versus CDK9. The method, then:
(§1) CDK Protein Kinase Inhibition by ADP-Glo Assay
(§2) This ADP-Glo assay measures ADP formed from a kinase reaction and indirectly quantifies the phosphorylation of peptide substrates by the CDK/cyclin protein complexes. The typical assays were carried out in Nanosyn by combining kinase/cyclin complexes, substrates, compounds, and cofactors (ATP and Mg2+) in a well of a 384-well microtiter plate (Corning 3824) and incubating at 22° C. (Table 1). At the end of the incubation, the reaction is quenched, and conversion is detected by luminescence using the Promega ADP-Glo™ Kinase Assay kit (catalog #V9102).
(§3) Final assay buffer mixture contains: • 100 mM HEPES, pH 7.5 • 0.1% BSA • 0.01% Triton X-100 • 1 mM DTT • 5 mM MgCl2 • 10 μM Sodium Orthovanadate • 100 μM Beta-Glycerophosphate • 1000 μM Ultra Pure ATP (provided in the Promega ADP-Glo™ Kinase Assay kit) • 1% DMSO (from compound)
(§4) Upon completion, 5 μL of the ADP Glo reagent was added to each well and the plate was further incubated at room temperature for 45 minutes. 10 uL of the Kinase Detection Reagent was subsequently added to each well. After 10 minutes of incubation, the plate was read and analyzed on the BioTek Synergy microplate reader using BioTek Gen5 software.

For a further assay, the target named is CDK1-CYCLIN B (Homo sapiens, UniProt P06493). The assay is described as follows: CDK protein kinase inhibition by ADP-Glo assay, CDK1-CYCLIN B. The assay is classed as biochemical. The settings on record: for IC50: ADP-Glo, 1000 μM ATP, read-out: CDK1-CYCLINB, IC50; for CDK2 Fold selectivity, CDK1: CDK2 versus CDK1. The method, then:
as §1, §2, §3, §4

The test system of assay [1] is CCNE1-amplified OVCAR3 cells. Kind of assay: Cell growth inhibition of CCNE1-amplified OVCAR3 cells (CellTiter-Glo). The class given is cell-based. The settings on record: Homo sapiens, OVCAR-3, 144 h, 6 days. In outline:
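Growth read-out was CellTiter-Glo luminescence, taken after 10 min at room temperature at the end of a 6-day compound exposure at 37 °C. Compounds were diluted from DMSO stocks across various concentrations.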

Another assay deals with CCNE1-normal SKOV3 cells. Kind of assay: Cell growth inhibition of CCNE1-normal SKOV3 cells (CellTiter-Glo). The settings on record: Homo sapiens, SK-OV-3, 144 h, 6 days. The assay is classed as cell-based. In outline: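 Growth was measured by CellTiter-Glo luminescence after 6 days' compound exposure at 37 °C. Cells were plated one day before dosing at 1000 per well in medium with 10% FBS, and compounds were diluted from DMSO stocks.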

Assay [2] has as its system Phospho-Rb (Ser807/811) in OVCAR3 cells. Kind of assay: Phospho-Rb expression inhibition in OVCAR3 cells quantified by In Cell Western. The class given is cell-based. The following applies: Homo sapiens, OVCAR-3, 24 hours, read-out: OVCAR-3 pRb IC50. The procedure, abridged: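 In-cell western: after 24 h compound exposure at 37° C, fixed OVCAR3 cells co-stained for pRb Ser807/811 (800 nm channel) and total Rb (680 nm channel), imaged by LI-COR Odyssey.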

Another assay deals with CDK2-CYCLIN E1 (Homo sapiens, UniProt P24941). Kind of assay: CDK protein kinase inhibition by ADP-Glo assay, CDK2-CYCLIN E1. The class given is biochemical. The settings on record: ADP-Glo, 1000 μM ATP, read-out: CDK2-CYCLINE, IC50. The method, then:
as §1, §2, §3, §4

A further assay deals with CDK4-CYCLIN D1 (Homo sapiens, UniProt P11802). Kind of assay: CDK protein kinase inhibition by ADP-Glo assay, CDK4-CYCLIN D1. The assay is classed as biochemical. The following applies: for IC50: ADP-Glo, 1000 μM ATP, read-out: CDK4-CYCLIND1, IC50; for CDK2 Fold selectivity, CDK4: CDK2 versus CDK4. The method, then: as §1, §2, §3, §4
The target in the next assay is CDK6-CYCLIN D3 (Homo sapiens, UniProt Q00534). The assay is described as follows: CDK protein kinase inhibition by ADP-Glo assay, CDK6-CYCLIN D3. The assay is classed as biochemical. The settings on record: for IC50: ADP-Glo, 1000 μM ATP, read-out: CDK6-CYCLIND3, IC50; for CDK2 Fold selectivity, CDK6: CDK2 versus CDK6. The method, then: as §1, §2, §3, §4

Like-named read-outs stand apart in the source and are kept apart here.

Sequence of CDK1-CYCLIN B (P06493 whole entry): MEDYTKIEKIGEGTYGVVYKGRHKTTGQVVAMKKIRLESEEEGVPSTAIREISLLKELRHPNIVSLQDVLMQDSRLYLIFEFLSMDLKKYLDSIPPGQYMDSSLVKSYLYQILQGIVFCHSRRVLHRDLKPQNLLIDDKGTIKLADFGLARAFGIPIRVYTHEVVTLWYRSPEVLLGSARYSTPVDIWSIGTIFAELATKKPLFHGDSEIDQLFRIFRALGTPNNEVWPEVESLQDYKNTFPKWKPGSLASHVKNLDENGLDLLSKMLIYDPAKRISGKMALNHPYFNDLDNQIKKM
Sequence of CDK1-CYCLIN B (P14635 whole entry partner): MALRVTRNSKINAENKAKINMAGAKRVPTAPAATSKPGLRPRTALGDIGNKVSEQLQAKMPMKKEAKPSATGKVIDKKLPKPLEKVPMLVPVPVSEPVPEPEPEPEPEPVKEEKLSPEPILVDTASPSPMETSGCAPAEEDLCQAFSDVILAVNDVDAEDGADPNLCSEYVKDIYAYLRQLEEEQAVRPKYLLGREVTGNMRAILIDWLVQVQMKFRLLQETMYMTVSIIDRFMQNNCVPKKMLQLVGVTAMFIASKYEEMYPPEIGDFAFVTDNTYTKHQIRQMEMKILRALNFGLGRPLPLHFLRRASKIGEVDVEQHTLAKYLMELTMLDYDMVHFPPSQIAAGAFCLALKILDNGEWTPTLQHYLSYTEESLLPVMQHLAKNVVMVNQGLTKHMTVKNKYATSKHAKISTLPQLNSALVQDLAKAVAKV
Sequence of CDK9-CYCLIN T1 (P50750 whole entry): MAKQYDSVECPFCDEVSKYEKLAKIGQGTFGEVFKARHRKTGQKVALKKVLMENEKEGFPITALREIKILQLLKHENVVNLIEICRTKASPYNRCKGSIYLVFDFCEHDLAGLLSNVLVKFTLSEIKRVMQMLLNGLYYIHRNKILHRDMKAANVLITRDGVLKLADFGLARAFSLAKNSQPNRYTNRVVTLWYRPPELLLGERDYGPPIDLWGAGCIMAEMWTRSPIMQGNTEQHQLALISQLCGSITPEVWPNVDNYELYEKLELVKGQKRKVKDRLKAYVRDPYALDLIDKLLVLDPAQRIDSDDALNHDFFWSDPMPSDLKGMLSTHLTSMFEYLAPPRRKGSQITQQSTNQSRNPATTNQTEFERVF
Sequence of CDK9-CYCLIN T1 (O60563 whole entry partner): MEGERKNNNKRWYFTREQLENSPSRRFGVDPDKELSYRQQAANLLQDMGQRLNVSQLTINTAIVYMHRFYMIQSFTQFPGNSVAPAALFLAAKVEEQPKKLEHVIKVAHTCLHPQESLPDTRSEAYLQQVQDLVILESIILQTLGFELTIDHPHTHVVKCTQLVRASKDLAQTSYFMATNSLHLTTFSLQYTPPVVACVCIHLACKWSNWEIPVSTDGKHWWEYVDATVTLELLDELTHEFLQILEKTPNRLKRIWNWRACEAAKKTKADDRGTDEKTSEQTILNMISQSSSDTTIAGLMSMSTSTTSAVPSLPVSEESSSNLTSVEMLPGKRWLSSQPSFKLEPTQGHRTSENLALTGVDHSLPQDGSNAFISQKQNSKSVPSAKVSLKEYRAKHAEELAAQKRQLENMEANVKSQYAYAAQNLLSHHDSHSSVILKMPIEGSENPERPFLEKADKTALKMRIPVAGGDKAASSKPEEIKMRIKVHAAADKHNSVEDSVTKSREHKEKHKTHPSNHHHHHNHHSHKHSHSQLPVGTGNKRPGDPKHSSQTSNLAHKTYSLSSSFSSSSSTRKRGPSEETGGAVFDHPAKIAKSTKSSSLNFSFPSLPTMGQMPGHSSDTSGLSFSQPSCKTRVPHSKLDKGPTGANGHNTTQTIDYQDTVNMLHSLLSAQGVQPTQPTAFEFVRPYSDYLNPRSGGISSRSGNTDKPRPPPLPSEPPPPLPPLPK
Sequence of CDK6-CYCLIN D3 (Q00534 whole entry): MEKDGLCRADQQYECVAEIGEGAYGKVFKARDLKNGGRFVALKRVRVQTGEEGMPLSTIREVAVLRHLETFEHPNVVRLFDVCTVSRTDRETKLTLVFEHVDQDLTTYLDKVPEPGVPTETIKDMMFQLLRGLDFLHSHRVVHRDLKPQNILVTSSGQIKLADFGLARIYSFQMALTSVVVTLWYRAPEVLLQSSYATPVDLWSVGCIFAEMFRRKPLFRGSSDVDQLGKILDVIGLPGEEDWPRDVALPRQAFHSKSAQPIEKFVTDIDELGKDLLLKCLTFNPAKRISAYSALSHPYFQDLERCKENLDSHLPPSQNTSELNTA
Sequence of CDK6-CYCLIN D3 (P30281 whole entry partner): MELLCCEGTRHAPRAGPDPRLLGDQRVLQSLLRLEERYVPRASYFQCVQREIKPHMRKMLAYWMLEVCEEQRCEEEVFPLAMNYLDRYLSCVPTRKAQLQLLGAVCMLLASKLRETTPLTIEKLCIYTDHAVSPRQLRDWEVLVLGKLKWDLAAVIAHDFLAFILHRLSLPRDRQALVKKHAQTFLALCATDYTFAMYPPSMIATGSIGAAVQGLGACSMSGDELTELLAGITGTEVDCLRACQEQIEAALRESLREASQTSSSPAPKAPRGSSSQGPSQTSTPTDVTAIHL
Sequence of CDK4-CYCLIN D1 (P11802 whole entry): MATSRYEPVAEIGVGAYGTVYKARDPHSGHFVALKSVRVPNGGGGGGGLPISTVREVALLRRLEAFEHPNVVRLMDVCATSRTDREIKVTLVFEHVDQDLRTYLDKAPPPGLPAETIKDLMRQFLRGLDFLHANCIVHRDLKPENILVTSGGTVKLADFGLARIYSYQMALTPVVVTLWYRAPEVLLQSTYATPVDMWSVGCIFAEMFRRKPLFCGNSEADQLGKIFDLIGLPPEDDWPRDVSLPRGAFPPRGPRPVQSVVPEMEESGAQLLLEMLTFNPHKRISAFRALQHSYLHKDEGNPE
Sequence of CDK4-CYCLIN D1 (P24385 whole entry partner): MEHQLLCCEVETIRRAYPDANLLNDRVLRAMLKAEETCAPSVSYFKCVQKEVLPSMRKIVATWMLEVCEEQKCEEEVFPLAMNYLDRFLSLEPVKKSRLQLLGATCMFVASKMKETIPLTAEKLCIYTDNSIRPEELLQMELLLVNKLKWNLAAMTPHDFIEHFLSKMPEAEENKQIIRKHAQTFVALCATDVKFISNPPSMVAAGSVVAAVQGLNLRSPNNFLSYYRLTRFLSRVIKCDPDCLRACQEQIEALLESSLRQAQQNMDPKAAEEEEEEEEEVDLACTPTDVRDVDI

Take `C[C@@H]1Oc2cncc(c2)Nc2cc(n[nH]2)[C@H]2CC[C@H](C2)OC(=O)N[C@H]2C[C@H]1C2` [Compound 150, (1^1S,1^3R,7^1R,7^3S,6S,Z)-6-methyl-2^1H-5,10-dioxa-3,8-diaza-4(3,5)-pyridina-2(3,5)-pyrazola-1(1,3)-cyclopentana-7(1,3)-cyclobutanacyclodecaphan-9-one]: the IC50 at CDK9-CYCLIN T1 (Table 21) was 100 to 500 nM; on CDK1-CYCLIN B (Table 21), 10 to 50 nM; in assay [1] it was 2 to 10 nM; with CCNE1-normal SKOV3 cells, 250 to 1250 nM; in assay [2] it was 2 to 10 nM; on CDK2-CYCLIN E1 (Table 21), not above 10 nM. The IC50 lay within 100 to 500 nM at CDK4-CYCLIN D1 (Table 21) and 50 to 100 nM at CDK6-CYCLIN D3 (Table 21). Besides, at CDK9-CYCLIN T1 (Table 22), the “CDK2 Fold selectivity, CDK9” value was “B (B, >100 and ≤500)”. Further, the “CDK2 Fold selectivity, CDK1” value at CDK1-CYCLIN B (Table 22) was “E (E, <20)”. Also, the “CDK2 Fold selectivity, CDK4” value at CDK4-CYCLIN D1 (Table 22) was “D (D, >20 and ≤50)”. Also, the “CDK2 Fold selectivity, CDK6” value on CDK6-CYCLIN D3 (Table 22) was “D (D, >20 and ≤50)”.
Consider `C[C@H]1Oc2cc(ccn2)Nc2cc(n[nH]2)[C@H]2CC[C@H](C2)OC(=O)N[C@H]2C[C@H]1C2` [Compound 144, (1^1S,1^3R,7^1R,7^3R,6R,Z)-6-methyl-2^1H-5,10-dioxa-3,8-diaza-4(4,2)-pyridina-2(3,5)-pyrazola-1(1,3)-cyclopentana-7(1,3)-cyclobutanacyclodecaphan-9-one], for which the IC50 was 100 to 500 nM on CDK9-CYCLIN T1 (Table 21); 100 to 500 nM at CDK1-CYCLIN B (Table 21); 2 to 10 nM in assay [1]; 250 to 1250 nM in the assay with CCNE1-normal SKOV3 cells; 2 to 10 nM in assay [2]; not above 10 nM on CDK2-CYCLIN E1 (Table 21). The IC50 at CDK4-CYCLIN D1 (Table 21) and at CDK6-CYCLIN D3 (Table 21) was 100 to 500 nM throughout. For the same compound, the “CDK2 Fold selectivity, CDK9” value on CDK9-CYCLIN T1 (Table 22) was “C (C, >50 and ≤100)”. Further, the “CDK2 Fold selectivity, CDK1” value at CDK1-CYCLIN B (Table 22) is on record as “E (E, <20)”. Further, on CDK4-CYCLIN D1 (Table 22), the “CDK2 Fold selectivity, CDK4” value is “D (D, >20 and ≤50)”. Moreover, the “CDK2 Fold selectivity, CDK6” value on CDK6-CYCLIN D3 (Table 22) was “D (D, >20 and ≤50)”.
Consider `C[C@@H]1CCCCc2cc(ccn2)Nc2cc(n[nH]2)[C@H]2CC[C@H](C2)OC(=O)N1` [Compound 115, (1^1S,1^3R,9R,Z)-9-methyl-2^1H-12-oxa-3,10-diaza-4(4,2)-pyridina-2(3,5)-pyrazola-1(1,3)-cyclopentanacyclododecaphan-11-one], for which the IC50 on CDK9-CYCLIN T1 (Table 19) lay within 100 to 500 nM; on CDK1-CYCLIN B (Table 19), 50 to 100 nM; in assay [1], 10 to 50 nM; in the assay on CCNE1-normal SKOV3 cells, 250 to 1250 nM; in assay [2], 10 to 50 nM; on CDK2-CYCLIN E1 (Table 19) it was 10 to 50 nM. The IC50 at CDK4-CYCLIN D1 (Table 19) and at CDK6-CYCLIN D3 (Table 19) was 10 to 50 nM in each case. For the same compound, at CDK9-CYCLIN T1 (Table 20), the “CDK2 Fold selectivity, CDK9” value was “E (E, <20)”. For the same compound, the “CDK2 Fold selectivity, CDK1” value on CDK1-CYCLIN B (Table 20) is reported as “E (E, <20)”. Also, at CDK4-CYCLIN D1 (Table 20), the “CDK2 Fold selectivity, CDK4” value is on record as “E (E, <20)”. For the same compound, the “CDK2 Fold selectivity, CDK6” value at CDK6-CYCLIN D3 (Table 20) is on record as “E (E, <20)”.
As for `C[C@H]1NC(=O)O[C@@H]2CC[C@@H](C2)c2cc([nH]n2)Nc2ccnc(c2)COCC1(F)F` [compound 165], the IC50 is 50 to 100 nM on CDK9-CYCLIN T1 (Table 31); 10 to 50 nM on CDK1-CYCLIN B (Table 31); 10 to 50 nM in assay [1]; 50 to 250 nM in the assay on CCNE1-normal SKOV3 cells; 2 to 10 nM in assay [2]; 10 to 50 nM on CDK2-CYCLIN E1 (Table 31). Besides, the IC50 on CDK4-CYCLIN D1 (Table 31) and on CDK6-CYCLIN D3 (Table 31) was 10 to 50 nM in each case.
